{"source": "patent US7524851B2", "about": "(Robert Bosch Gesellschaft fur Medizinische Forschung (RBMF), priority 2003, dated 2009)", "key": {"[1]": {"test_system": "lamina propria mononuclear cells", "assay": "TUNEL assay for apoptotic lamina propria mononuclear cells in IBD patients", "type": "in vivo, human", "excerpt": "FIG. 3. […] (a) LPMCs were isolated and stimulated with anti-CD2/CD28 plus IL-2 in the presence or absence of 6-MP for 5 days followed by FACS analysis. […] Data represent mean values±SEM from eight patients with IBD per group. […] Data are representative of 5-13 patients per group. Magnification, ×20 (bar=100 μm) (ce) and ×40 (bar=50 μm) (f-h). (i) Quantification of the percentage of apoptotic, TUNEL-positive LPMCs in patients with IBD receiving 6-MP as compared with untreated control patients. […] Data are mean values±SEM of 5-13 patients per group."}, "[2]": {"test_system": "lamina propria lymphocytes", "assay": "Apoptosis of anti-CD2/CD28 activated lamina propria lymphocytes in vitro", "type": "cell-based, human", "conditions": "ulcerative colitis; 5 days", "excerpt": "Isolation of primary CD4^+ T lymphocytes and lamina propria cells: Human peripheral blood mononuclear cells (PBMCs) from healthy volunteers (25-42 years of age) and patients with Crohn's disease (31-65 years of age) were isolated using Ficoll-Hypaque gradients. PBMCs were further purified using CD4 monoclonal antibodies attached to immunomagnetic beads according to the manufacturer's protocol, followed by treatment with Detachabead (Dynal; Oslo, Norway). In some cases, CD4^+ T cells were further separated by negative selection techniques using CD45RO or CD45RA monoclonal antibodies (PharMingen; Heidelberg, Germany) and immunomagnetic beads (Dynal). […]\nFor FACS analysis, apoptotic cells were detected by staining with annexin V and propidium iodide using the Annexin V FITC Apoptosis Detection Kit I (PharMingen) (Atreya et al., Nat. Med. 6:583-588 (2000)). […] To verify the results obtained with the annexin V/propidium iodide staining, analysis of T cells displaying DNA fragmentation was also determined by the Nicoletti technique, as described in (Nicoletti et al., J. Immunol. Methods 139:271-279 (1991)). […] Finally, cells were analyzed on a FACScan flow cytometer. […]"}, "[3]": {"conditions": "all 47 CD patients", "experimental": "Blood Sampling: Blood samples from patients were collected into EDTA tubes and the packed red blood cells (RBCs) were isolated by centrifugation within 6 hours after blood drawing. The RBCs were immediately frozen at −80° C. until analysis.\n6-thioguanine nucleotides (6-TGN) and the methylated metabolites S-methyl-mercaptopurine ribonucleotides (6-MMPR) and S-methyl 6-thioguanosine nucleotides (MTGN) were quantified by a high-performance liquid chromatographic (HPLC) assay as described in Herrlinger et al., Aliment Pharmacol Ther. 19:1269-1276 (2004).\nThe concentrations of 6-thioguanosine 5′-mono-, di-, and triphosphate (TGMP, TGDP, and TGTP, respectively) were determined separately by the method described in Example 2 above. […] The 5′-phosphates were isolated, extracted, and oxidized as described by Rabel et al., Anal. Biochem. 224:315-322 (1995) with slight modifications. HPLC separation was achieved by reversed phase HPLC on a C18 column with phosphate buffer (20 mM, pH 6.8) and 5 mM tetrabutylammonium hydrogen sulfate/acetonitrile 84:16 (v/v) as the mobile phase. Using fluorescence detection, quantification of 6-thioguanosine nucleotides was performed at concentration ranges of 25 to 400 pmol/100 μL RBC for TGTP, 10 to 100 pmol/100 μL for TGDP, and 10 to 50 pmol/100 μL RBC for TGMP."}, "Crohn's disease": {"test_system": "Crohn's disease", "conditions": "CD patients, long-term azathioprine", "description": "The diagnosis of CD was confirmed in all patients by radiographic, endoscopic, and histopathologic parameters. Clinical outcomes such as the Crohn's disease activity index (CDAI), number of flares per year, and demand for anti-TNF antibody (e.g., infliximab) treatment were determined on clinical visits."}, "[4]": {"conditions": "subgroup n=6 (low 6-TGN, low TGTP ratio)"}, "[5]": {"conditions": "subgroup n=13 (high 6-TGN and TGDP levels, ratio less than about 0.85)"}, "[6]": {"conditions": "subgroup n=13 (high 6-TGN and TGTP levels, ratio greater than about 0.85)"}, "[7]": {"conditions": "subgroup n=15 (low 6-TGN, high TGTP ratio)"}, "[8]": {"conditions": "subgroup n=21 (low 6-TGN levels)"}, "[9]": {"conditions": "subgroup n=26 (high 6-TGN levels)"}}, "note": "Values joined by “and” are separate entries in the source; they are usually repeats but may differ in a detail not shown here. Equal values may be shown once. Read-outs that look alike come from different tables or passages of the source.", "data": [{"compound": "Sc1ncnc2nc[nH]c12", "note": "[6-MP, 6-mercaptopurine]", "values": [{"measurement": "number of apoptotic cells", "setting": "[1]; 6-MP-resistant patients with IBD", "value": "no increase"}, {"measurement": "number of apoptotic lamina propria mononuclear cells", "setting": "[1]; successful 6-MP treatment vs untreated patients with IBD, P<0.01", "value": "significant increase"}, {"measurement": "apoptosis in anti-CD2 plus anti-CD28 activated lamina propria lymphocytes", "setting": "[2]", "value": "capable of inducing apoptosis"}]}, {"compound": "Cn1cnc([N+](=O)[O-])c1Sc1ncnc2nc[nH]c12", "note": "[azathioprine, Azathioprine]", "values": [{"measurement": "TGMP levels in RBC", "setting": "[3]", "value": "only detectable in traces"}, {"measurement": "CDAI (Crohn's disease activity index)", "setting": "Crohn's disease; [4]", "value": "151 ± 55"}, {"measurement": "Flares (number of flares per year)", "setting": "Crohn's disease; [4]", "value": "1.4 ± 1.3"}, {"measurement": "INF (infliximab use)", "setting": "Crohn's disease; [4]", "value": "1.0 ± 0.6"}, {"measurement": "Response (clinical response rate)", "setting": "Crohn's disease; [4]", "value": "0.5 ± 0.3"}, {"measurement": "CDAI (Crohn's disease activity index)", "setting": "Crohn's disease; [5]", "value": "277 ± 62"}, {"measurement": "Flares (number of flares per year)", "setting": "Crohn's disease; [5]", "value": "2.1 and 2.1 ± 0.9"}, {"measurement": "INF (infliximab use)", "setting": "Crohn's disease; [5]", "value": "1.1 and 1.1 ± 0.5"}, {"measurement": "Response (clinical response rate)", "setting": "Crohn's disease; [5]", "value": "0.15 and 0.15 ± 0.1"}, {"measurement": "CDAI (Crohn's disease activity index)", "setting": "Crohn's disease; [6]", "value": "149 ± 35"}, {"measurement": "INF (infliximab use)", "setting": "Crohn's disease; [6]", "value": "0.36 and 0.36 ± 0.2"}, {"measurement": "CDAI (Crohn's disease activity index)", "setting": "Crohn's disease; [7]", "value": "189 ± 28"}, {"measurement": "Flares (number of flares per year)", "setting": "Crohn's disease; [7]", "value": "1.9 ± 1"}, {"measurement": "INF (infliximab use)", "setting": "Crohn's disease; [7]", "value": "1.1 ± 0.7"}, {"measurement": "Response (clinical response rate)", "setting": "Crohn's disease; [7]", "value": "0.1 ± 0.1"}, {"measurement": "CDAI (Crohn's disease activity index)", "setting": "Crohn's disease; [8]", "value": "176 ± 26"}, {"measurement": "Flares (number of flares per year)", "setting": "Crohn's disease; [8]", "value": "2.1 ± 0.9"}, {"measurement": "INF (infliximab use)", "setting": "Crohn's disease; [8]", "value": "1.1 ± 0.5"}, {"measurement": "Response (clinical response rate)", "setting": "Crohn's disease; [8]", "value": "0.16 and 0.16 ± 0.1"}, {"measurement": "CDAI (Crohn's disease activity index)", "setting": "Crohn's disease; [9]", "value": "206 ± 36"}, {"measurement": "Flares (number of flares per year)", "setting": "Crohn's disease; [9]", "value": "1.1 ± 0.6"}, {"measurement": "INF (infliximab use)", "setting": "Crohn's disease; [9]", "value": "0.7 ± 0.3"}]}]}
